The source of these data is ChEMBL document CHEMBL5385889, “Design, synthesis and biological evaluations of quinolone amides against African trypanosomiasis with improved solubility” (Eur J Med Chem, 2023).

Values after ≈ are worked out from the molar mass of the structure shown.

Series [1] can be described thus: Octanol/water partition coefficient, log P of the compound by LC-MS analysis. The series is classed as physicochemical.
The nature of series [2]: Selectivity index, ratio of CC50 for cytotoxicity against mouse J774.1 cells assessed as reduction in cell viability to IC50 for antitrypanosomal activity against wild type Trypanosoma brucei M1.2 Lister 427 trypomastigotes form assessed as parasite growth inhibition. The series is classed as toxicity, cell-based. Conditions: read-out: Ratio CC50/IC50.
Series [3] deals with J774.1. The series can be described thus: Cytotoxicity against mouse J774.1 cells assessed as reduction in cell viability incubated for 24 hrs by alamar blue staining based analysis. The series is classed as functional. For orientation: Resazurin is reduced to fluorescent resorufin, in cell work by metabolically active cells.
The subject of series [4] is Trypanosoma brucei. The series can be described thus: Antitrypanosomal activity against wild type Trypanosoma brucei M1.2 Lister 427 trypomastigotes form assessed as parasite growth inhibition incubated for 48 hrs. The series is classed as functional, organism-based. Conditions: M1.2 Lister 427, 48 h.
Series [5] is described as follows: Thermodynamic aqueous solubility of compound in PBS buffer at pH 7.4 at 37 degreeC measured after 24 hrs by HPLC analysis. Type of series: physicochemical. Conditions: read-out: Therm_solubility.

As usually defined, the logP is the decadic logarithm of the partition coefficient of the neutral form, usually between octanol and water. As a reminder, the CC50 is the concentration giving 50% cytotoxicity. In general, IC50 refers to the concentration needed to halve the response being measured. Consider `CCCCn1cc(C(=O)NCc2ccccc2)c(=O)c2cc(F)c(N3CCOCC3)cc21`, for which the lipophilicity (logP) in series [1] came to 4.1. The selectivity ratio in series [2] was found to be 1210. The CC50 in series [3] turned out to be 57 µM. Moreover, in series [4], the IC50 turned out to be 0.047 µM.
With `CCCCn1cc(C(=O)NCc2ccccc2)c(=O)c2ccc(N3CCOCC3)cc21`, the selectivity ratio in series [2] was greater than 435. In addition, in series [3], the CC50 is greater than 100 µM. Moreover, the half-inhibitory concentration (IC50) in series [4] stood at 0.23 µM.
As to `CCCCn1cc(C(=O)NCc2ccccc2)c(=O)c2c(F)cc(N3CCOCC3)cc21`, the lipophilicity (logP) in series [1] (read-out: logP) was 3.38. Moreover, the selectivity ratio in series [2] was greater than 2000. The CC50 in series [3] was greater than 100 µM. Also, the IC50 in series [4] was determined as 0.05 µM.
For the compound `CCCCn1cc(C(=O)NCc2ccc(CN)cc2)c(=O)c2cc(F)c(N3CCOCC3)cc21`, in series [1] (read-out: logP), the log partition coefficient (logP) worked out at 3.8. Besides, in series [5], the solubility thermodynamic at 24 h is greater than 1000 µg/mL. In series [2], the selectivity ratio amounted to 164. The 50% cytotoxic concentration (CC50) in series [3] was 49.2 µM. Also, the 50% inhibitory concentration (IC50) in series [4] was 0.3 µM.
In the case of `CCCCn1cc(C(=O)NC2(c3ccccc3)CCOCC2)c(=O)c2ccc(N3CCOCC3)cc21`, in series [1] (read-out: logP), the logP was 3.6. Besides, the solubility thermodynamic at 24 h in series [5] came out at 1.03 µg/mL (≈ 2.1 µM). Moreover, the CC50 in series [3] is greater than 50 µM. Moreover, in series [4], the 50% inhibitory concentration (IC50) is greater than 20 µM.
As for `CCCCn1cc(C(=O)NCc2ccccc2)c(=O)c2ccc(NCCOCCOCCOC)cc21`, the logP in series [1] (read-out: logP) was found to be 3.38. In addition, the solubility thermodynamic at 24 h in series [5] stood at 41 µg/mL (≈ 82.7 µM). Besides, in series [2], the selectivity ratio was greater than 43. Further, the CC50 in series [3] is greater than 50 µM. Besides, in series [4], the IC50 was 1.15 µM.
On the same counts, the results for `CCCCn1cc(C(=O)NCc2ccccc2)c(=O)c2cc(F)c(N3CCOCC3)c(Cl)c21` are 5.01, less than 0.1 µg/mL, greater than 278, greater than 50 µM and 0.18 µM.
With `CCCCn1cc(C(=O)NC2(c3ccccc3)CCCCC2)c(=O)c2cc(F)c(N3CCOCC3)cc21`, the lipophilicity (logP) in series [1] (read-out: logP) amounted to 5.64. In series [5], the solubility thermodynamic at 24 h is less than 0.1 µg/mL. The selectivity ratio in series [2] came to 7. The CC50 in series [3] amounted to 31 µM. Besides, the IC50 in series [4] was determined as 4.72 µM.
For `CCCCn1cc(C(=O)NC2(c3ccccc3)CC2)c(=O)c2cc(F)c(N3CCOCC3)c(F)c21` the same measures were 4.57, 0.23 µg/mL (≈ 0.478 µM), greater than 333, greater than 20 µM and 0.06 µM.
With `CCCCn1cc(C(=O)NC2(c3ccccc3)CCCCC2)c(=O)c2ccc(N3CCOCC3)cc21`, the logP in series [1] (read-out: logP) was 4.94. For the same compound, the solubility thermodynamic at 24 h in series [5] was less than 0.1 µg/mL. The selectivity ratio in series [2] came to 9. For the same compound, the half-maximal cytotoxic concentration (CC50) in series [3] is 37 µM. The half-maximal inhibitory concentration (IC50) in series [4] amounted to 4.18 µM.
Regarding `CCCCn1cc(C(=O)NC2(c3ccccc3)CCS(=O)(=O)CC2)c(=O)c2ccc(N3CCOCC3)cc21`, the logP in series [1] (read-out: logP) stood at 2.83. Besides, in series [5], the solubility thermodynamic at 24 h amounted to 3.35 µg/mL (≈ 6.23 µM). In addition, in series [3], the CC50 was greater than 50 µM. Also, the half-inhibitory concentration (IC50) in series [4] was greater than 20 µM.
With `CCCCn1cc(C(=O)NCc2ccccc2)c(=O)c2cc(OCC)c(N3CCOCC3)c(OCC)c21`, in series [1] (read-out: logP), the lipophilicity (logP) was 5.51. Besides, the solubility thermodynamic at 24 h in series [5] is less than 0.1 µg/mL. Also, the selectivity ratio in series [2] was found to be 17. The CC50 in series [3] amounted to 33.2 µM. The concentration for half-maximal inhibition (IC50) in series [4] worked out at 1.93 µM.
As for `CCCCn1cc(C(=O)NCc2cccc(C#N)c2)c(=O)c2c(F)cc(N3CCOCC3)cc21`, the lipophilicity (logP) in series [1] (read-out: logP) was 2.98. In addition, in series [5], the solubility thermodynamic at 24 h turned out to be 0.24 µg/mL (≈ 0.519 µM). Besides, the selectivity ratio in series [2] was greater than 2270. For the same compound, the CC50 in series [3] is greater than 50 µM. Moreover, the concentration for half-maximal inhibition (IC50) in series [4] came to 0.022 µM.
`CCCCn1cc(C(=O)NCc2ccc(CN)cc2)c(=O)c2c(F)cc(N3CCOCC3)cc21`: in series [1] (read-out: logP), the logP stood at 2.72. The solubility thermodynamic at 24 h in series [5] is greater than 1000 µg/mL. The selectivity ratio in series [2] is greater than 200. Besides, in series [3], the CC50 is greater than 50 µM. In addition, the 50% inhibitory concentration (IC50) in series [4] was determined as 0.25 µM.
On the same counts, the results for `CCCCn1cc(C(=O)NC2(c3ccccc3)CCCCC2)c(=O)c2c(F)cc(N3CCOCC3)cc21` are 4.97, less than 0.1 µg/mL, greater than 12, greater than 50 µM and 4.22 µM.
On the same counts, the results for `CCCCn1cc(C(=O)NCc2ccc(CN)cc2)c(=O)c2ccc(N3CCOCC3)cc21` are 3.24, greater than 1000 µg/mL, greater than 32, greater than 50 µM and 1.55 µM.
Consider `CCCCn1cc(C(=O)NCc2ccccc2)c(=O)c2ccc(N3CCC(OCCOCCOCCOC)CC3)cc21`, for which the logP in series [1] (read-out: logP) came to 4.05. Besides, the solubility thermodynamic at 24 h in series [5] is 86.9 µg/mL (≈ 150 µM). Further, the selectivity ratio in series [2] amounted to 48. Moreover, the cytotoxic concentration (CC50) in series [3] is 48.5 µM. For the same compound, in series [4], the concentration for half-maximal inhibition (IC50) was 1.01 µM.
For `O=C(NCc1ccccc1)c1cn(CC2CCC2)c2cc(N3CCOCC3)ccc2c1=O` the same measures were 3.68, 1.66 µg/mL (≈ 3.85 µM), 37, 29.9 µM and 0.8 µM.
On the same counts, the results for `CCCCn1cc(C(=O)NC2(c3ccccc3)CCCC2)c(=O)c2cc(F)c(N3CCOCC3)cc21` are 5.24, less than 0.1 µg/mL, 26, 47.4 µM and 1.83 µM.
As to `CCCCn1cc(C(=O)NC2(c3ccccc3)CC2)c(=O)c2ccc(N3CCOCC3)cc21`, the logP in series [1] (read-out: logP) was 3.76. Besides, in series [5], the solubility thermodynamic at 24 h is less than 0.1 µg/mL. Besides, the selectivity ratio in series [2] was greater than 69. Further, the CC50 in series [3] is greater than 50 µM. Moreover, the half-maximal inhibitory concentration (IC50) in series [4] came to 0.72 µM.
On the same counts, the results for `CCCCn1cc(C(=O)NCc2ccc(C#N)cc2)c(=O)c2c(F)cc(N3CCOCC3)cc21` are 2.9, 0.88 µg/mL (≈ 1.9 µM), greater than 500, greater than 50 µM and 0.1 µM.
For `CCCCn1cc(C(=O)NCc2ccccc2)c(=O)c2cc(F)c(N3CCOCC3)c(Br)c21` the same measures were 5.05, less than 0.1 µg/mL, greater than 106, greater than 50 µM and 0.47 µM.
For `CCCCn1cc(C(=O)NC23CC(C2)C3)c(=O)c2ccc(N3CCOCC3)cc21` the same measures were 3.74, 3.02 µg/mL (≈ 7.64 µM), greater than 13, greater than 50 µM and 3.72 µM.
With `CCCCn1cc(C(=O)NC2(c3ccccc3)CC2)c(=O)c2c(F)cc(N3CCOCC3)cc21`, the lipophilicity (logP) in series [1] (read-out: logP) is 3.54. Further, the solubility thermodynamic at 24 h in series [5] was less than 0.1 µg/mL. The selectivity ratio in series [2] was greater than 278. Further, the CC50 in series [3] is greater than 50 µM. Further, the 50% inhibitory concentration (IC50) in series [4] turned out to be 0.18 µM.
For `CCCCn1cc(C(=O)NCc2cccc(CN)c2)c(=O)c2ccc(N3CCOCC3)cc21`, the lipophilicity (logP) in series [1] (read-out: logP) is 3.31. The solubility thermodynamic at 24 h in series [5] is greater than 1000 µg/mL. Besides, the selectivity ratio in series [2] is greater than 46. For the same compound, the CC50 in series [3] was greater than 50 µM. Also, the IC50 in series [4] came out at 1.08 µM.
As to `O=C(NCc1ccccc1)c1cn(CC2CC2)c2cc(N3CCOCC3)ccc2c1=O`, the log partition coefficient (logP) in series [1] (read-out: logP) is 3.24. The solubility thermodynamic at 24 h in series [5] was 5.81 µg/mL (≈ 13.9 µM). The selectivity ratio in series [2] is greater than 91. Further, the CC50 in series [3] was greater than 50 µM. In addition, the half-inhibitory concentration (IC50) in series [4] was determined as 0.55 µM.
On the same counts, the results for `CCCCn1cc(C(=O)NC2(c3ccccc3)CC2)c(=O)c2cc(F)c(N3CCOCC3)cc21` are 4.46, less than 0.1 µg/mL, greater than 333, greater than 50 µM and 0.15 µM.
In the case of `O=C(NCc1ccccc1)c1cn(C23CC(C2)C3)c2cc(N3CCOCC3)ccc2c1=O`, the logP in series [1] (read-out: logP) is 4.57. Also, the solubility thermodynamic at 24 h in series [5] amounted to 4.06 µg/mL (≈ 9.45 µM). In addition, in series [2], the selectivity ratio was determined as 373. The CC50 in series [3] turned out to be 48.4 µM. Besides, the IC50 in series [4] came to 0.13 µM.
On the same counts, the results for `O=C(NCc1ccccc1)c1cn(CC2CCCCC2)c2cc(N3CCOCC3)ccc2c1=O` are 4.59, less than 0.1 µg/mL, greater than 58, greater than 50 µM and 0.86 µM.
Regarding `CCCCn1cc(C(=O)NCc2ccccc2)c(=O)c2ccc(OCCOCCOCCOC)cc21`, in series [1] (read-out: logP), the log partition coefficient (logP) came to 3.57. Also, the solubility thermodynamic at 24 h in series [5] stood at 93 µg/mL (≈ 187 µM). Besides, the selectivity ratio in series [2] is greater than 45. Also, the CC50 in series [3] was greater than 50 µM. Besides, in series [4], the IC50 worked out at 1.12 µM.
For `CCCCn1cc(C(=O)NCc2ccccc2)c(=O)c2ccc(N3CCCN(C)CC3)cc21` the same measures were 4.51, 20.9 µg/mL (≈ 46.8 µM), 5, 14.2 µM and 2.97 µM.
For `CCCCn1cc(C(=O)NCc2cccc(CN)c2)c(=O)c2cc(F)c(N3CCOCC3)cc21` the same measures were 3.83, greater than 1000 µg/mL, 80, 41.8 µM and 0.52 µM.
As for `CCCCN1CC(C)(C(=O)NCc2ccccc2)C(=O)c2ccc(N3CCOCC3)cc21` (centres undefined), in series [1] (read-out: logP), the logP is 3.04. In addition, in series [5], the solubility thermodynamic at 24 h was 10.4 µg/mL (≈ 23.9 µM). Moreover, the selectivity ratio in series [2] was greater than 13. Further, in series [3], the half-maximal cytotoxic concentration (CC50) is greater than 50 µM. In addition, the 50% inhibitory concentration (IC50) in series [4] turned out to be 3.74 µM.
For `CCCCn1cc(C(=O)NC2(c3ccccc3)CCCC2)c(=O)c2ccc(N3CCOCC3)cc21` the same measures were 4.57, less than 0.1 µg/mL, 8, 34.1 µM and 4.4 µM.
